The source of these data is PMC5085761 (International Journal of Molecular Sciences, 2016).

A word on the IC50: it is the concentration that gives 50% inhibition.

Holding throughout (type): in vitro ADME
The target of one data set is T1, human P-gp (Homo sapiens, UniProt P08183).
T1 construct: purchased GenoMembrane Co., Ltd. (Kanagawa, Japan); host or cells: Sf9
Kind of data set: Inhibition of tracer uptake in P-gp-expressing vesicles. Conditions: tracer [3H]digoxin 1 µM. On the procedure:
(§1) For ABC transporters, experimental kits containing Sf9-derived vesicles with high expression levels of human P-gp, MRP4, BCRP, and each ABC transporter (including buffer, ATP/AMP solution, and glutathione) were purchased from GenoMembrane Co., Ltd. (Kanagawa, Japan).
(§2) Vesicular transport assays were carried out according to the manufacturer’s protocol. […] The reaction was started by suspending 50 μg of vesicles (10 μL) in 40 μL of the reaction buffer. After incubation for an appropriate period of time, the reaction was stopped by the addition of ice-cold stop buffer (40 mM MOPS-Tris and 70 mM KCl; pH 7.0), after which the solution was filtered through a 0.45 μm HA filter (Millipore Corp., Billerica, MA, USA) using suction, and was washed twice in 5 mL of ice-cold stop buffer. The radioactivity of the filter was measured with a Tri-Carb 2910TR liquid scintillation counter (PerkinElmer) using Ultima Gold (PerkinElmer). The amount of tracer uptake was normalized to the membrane protein amount described in the product information sheets.

Another data set has as its target T2, human BCRP (Homo sapiens, UniProt Q9UNQ0).
T2 construct: purchased GenoMembrane Co., Ltd. (Kanagawa, Japan); host or cells: Sf9
T2 sequence (Q9UNQ0 1-655): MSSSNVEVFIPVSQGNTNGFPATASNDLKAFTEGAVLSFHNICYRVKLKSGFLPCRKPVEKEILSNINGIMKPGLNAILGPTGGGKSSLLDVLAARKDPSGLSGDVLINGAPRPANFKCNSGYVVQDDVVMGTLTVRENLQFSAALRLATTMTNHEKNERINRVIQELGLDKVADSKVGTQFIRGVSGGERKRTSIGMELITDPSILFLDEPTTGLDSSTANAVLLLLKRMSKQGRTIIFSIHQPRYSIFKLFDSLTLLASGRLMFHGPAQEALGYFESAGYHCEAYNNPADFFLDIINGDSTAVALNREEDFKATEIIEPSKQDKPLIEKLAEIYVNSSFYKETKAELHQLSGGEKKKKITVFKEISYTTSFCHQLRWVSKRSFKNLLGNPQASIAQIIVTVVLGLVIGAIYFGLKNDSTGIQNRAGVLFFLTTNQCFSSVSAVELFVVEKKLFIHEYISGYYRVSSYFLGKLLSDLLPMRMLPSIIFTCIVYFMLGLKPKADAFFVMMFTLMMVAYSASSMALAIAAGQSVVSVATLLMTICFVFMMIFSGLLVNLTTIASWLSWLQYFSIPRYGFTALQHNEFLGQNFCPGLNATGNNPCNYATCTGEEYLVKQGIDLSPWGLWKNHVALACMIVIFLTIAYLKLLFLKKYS
Kind of data set: Inhibition of tracer uptake in BCRP-expressing vesicles. Conditions: ES 0.1 µM, 100 µM–12.5 mM fluciclovine. On the procedure: as §1, §2

The next data set has as its target T3, OATP1B3 (Homo sapiens, UniProt Q9NPD5).
T3 construct: host or cells: HEK293
T3 sequence (Q9NPD5 1-702): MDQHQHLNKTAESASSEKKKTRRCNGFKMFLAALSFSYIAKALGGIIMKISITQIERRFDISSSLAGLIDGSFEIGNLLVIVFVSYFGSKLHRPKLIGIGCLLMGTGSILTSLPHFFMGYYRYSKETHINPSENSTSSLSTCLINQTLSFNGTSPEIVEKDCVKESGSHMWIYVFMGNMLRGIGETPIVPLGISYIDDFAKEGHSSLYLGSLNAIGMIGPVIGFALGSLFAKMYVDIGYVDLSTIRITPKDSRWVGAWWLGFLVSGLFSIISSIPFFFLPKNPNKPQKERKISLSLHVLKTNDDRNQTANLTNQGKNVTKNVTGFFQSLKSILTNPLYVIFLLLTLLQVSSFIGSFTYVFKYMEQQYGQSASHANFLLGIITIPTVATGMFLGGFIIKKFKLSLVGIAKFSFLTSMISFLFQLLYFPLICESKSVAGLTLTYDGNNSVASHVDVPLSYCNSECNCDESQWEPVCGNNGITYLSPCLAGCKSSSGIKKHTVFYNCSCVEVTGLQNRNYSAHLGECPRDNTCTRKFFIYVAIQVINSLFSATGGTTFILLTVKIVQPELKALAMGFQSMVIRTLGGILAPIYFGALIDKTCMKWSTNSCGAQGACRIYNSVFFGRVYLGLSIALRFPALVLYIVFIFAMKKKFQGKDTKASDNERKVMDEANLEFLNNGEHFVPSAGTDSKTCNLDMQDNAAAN
Kind of data set: Inhibition of tracer uptake in OATP1B3-expressing cells. Conditions: OATP1B3, tracer [3H]E2G 0.1 µM, 100 µM–10 mM fluciclovine. On the procedure:
For the SLC transporter experiments, Mock Flp-in-293 cells (Flp/mock), OAT1-expressing Flp-in-293 cells (Flp/OAT1), mock HEK293 cells (HEK/mock), and OATP1B3-expressing HEK293 cells (HEK/OATP1B3) were obtained from Kanazawa University (Ishikawa, Japan). Briefly, Flp-in-293 and HEK293 cells were transfected with the appropriate plasmid DNA and selected using antibiotics (hygromycin or G-418). All cell lines were cultured in DMEM (Life Technologies Japan) supplemented with 10% (v/v) fetal bovine serum (American Type Culture Collection) and antibiotics (100 U/mL penicillin and 100 μg/mL streptomycin (Life Technologies Japan) for mock cells, 0.2 mg/mL hygromycin for Flp/OAT1 cells, and 1.2 mg/mL G-418 (Roche Diagnostics K.K., Tokyo, Japan) for HEK/OATP1B3 cells) at 37 °C under an atmosphere containing 5% CO2. […]
The experiments were performed as described previously, with minor modifications. […] The cells were lysed in 0.3 mL of 0.1N NaOH at room temperature, after which the radioactivity of each aliquot was measured as described above. The protein concentration of the cell lysate was determined with a VersaMax microplate reader (Molecular Devices Japan K.K., Osaka, Japan) or SpectraMax i3x (Molecular Devices Japan K.K.; only for OATP1B1) using a BCA Protein Assay Kit (Thermo Fisher Scientific, Kanagawa, Japan). Tracer uptake was expressed as pmol/mg protein. […]

T1 sequence (P08183 whole entry): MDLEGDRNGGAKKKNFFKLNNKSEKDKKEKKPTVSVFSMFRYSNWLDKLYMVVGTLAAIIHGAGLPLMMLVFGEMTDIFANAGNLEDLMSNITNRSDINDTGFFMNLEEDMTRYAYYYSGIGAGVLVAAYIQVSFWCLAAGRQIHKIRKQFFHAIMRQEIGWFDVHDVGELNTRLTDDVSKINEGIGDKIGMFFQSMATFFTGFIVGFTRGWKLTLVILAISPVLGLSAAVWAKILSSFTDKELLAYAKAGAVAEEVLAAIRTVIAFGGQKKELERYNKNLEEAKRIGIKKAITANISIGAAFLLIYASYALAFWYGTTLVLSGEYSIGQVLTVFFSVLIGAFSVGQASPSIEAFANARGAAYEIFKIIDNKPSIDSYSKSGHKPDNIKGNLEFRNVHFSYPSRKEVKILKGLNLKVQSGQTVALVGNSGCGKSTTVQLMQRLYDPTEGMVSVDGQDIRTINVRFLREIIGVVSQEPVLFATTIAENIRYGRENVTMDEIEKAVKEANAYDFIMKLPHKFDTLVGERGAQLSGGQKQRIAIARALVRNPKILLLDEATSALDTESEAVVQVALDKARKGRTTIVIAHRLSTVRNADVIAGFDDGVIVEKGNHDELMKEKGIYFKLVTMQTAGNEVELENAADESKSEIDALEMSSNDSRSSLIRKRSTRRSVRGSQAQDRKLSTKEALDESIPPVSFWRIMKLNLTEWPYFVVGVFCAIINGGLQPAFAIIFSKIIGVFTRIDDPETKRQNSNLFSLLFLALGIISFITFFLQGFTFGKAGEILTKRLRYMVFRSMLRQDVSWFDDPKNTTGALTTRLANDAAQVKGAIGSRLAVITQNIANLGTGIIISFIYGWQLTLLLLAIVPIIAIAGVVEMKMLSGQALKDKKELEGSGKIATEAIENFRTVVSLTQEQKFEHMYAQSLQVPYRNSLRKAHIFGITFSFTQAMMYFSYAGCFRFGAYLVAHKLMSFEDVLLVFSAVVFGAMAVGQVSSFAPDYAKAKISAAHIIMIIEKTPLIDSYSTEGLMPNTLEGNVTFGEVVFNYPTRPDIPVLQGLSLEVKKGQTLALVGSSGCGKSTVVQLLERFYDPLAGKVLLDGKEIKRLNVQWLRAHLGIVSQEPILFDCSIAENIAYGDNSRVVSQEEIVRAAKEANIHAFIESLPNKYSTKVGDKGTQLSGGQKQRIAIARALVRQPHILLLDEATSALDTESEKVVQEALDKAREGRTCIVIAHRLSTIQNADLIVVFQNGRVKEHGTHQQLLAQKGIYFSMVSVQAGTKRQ

At human P-gp, `N[C@]1(C(=O)O)C[C@@H](F)C1` [fluciclovine] showed an IC50 of 2.95 ± 2.56 mM. Moreover, the “inhibition of transport of BCRP-specific substrate [3H]estrone-3-sulfate” value at human BCRP is recorded as “does not inhibit”. Moreover, the “inhibition by fluciclovine at millimolar concentrations observed” value against OATP1B3 is “not”.
